Results as given in US20260356879A1, “CELASTROL DERIVATIVES” (Celloram Inc., priority 2022, published 2026).

Key:
NLRP3 inflammasome [1] = test: IL-1β secretion in THP-1 macrophages, LPS + Nigericin; format: cell-based; conditions: human THP-1 macrophages, FIG. 5C
Method: (§1) This example illustrates a comparative study of CLM-022 and MCC950 in inhibiting NLRP3 inflammasome activity in mouse and human macrophages.
To confirm the inhibitory effect of CLM-022 in human macrophages, THP-1 cells, a human leukemia monocytic cell line, were differentiated into macrophages using phorbol 12-myristate-13-acetate (PMA, 100 ng/ml) treatment for one day. The THP-1 macrophages were then treated with LPS (100 ng/ml) for 3 hours to induce the expression of inflammatory genes. Subsequently, the THP-1 cells were treated with CLM-022 or MCC950 in a dose range of 0-10 μM for 30 minutes. Then, to fully activate NLRP3-dependent inflammasome activity, Nigericin (10 μM) was added to the THP-1 cells for an additional 60 min.

NLRP3 inflammasome [2] = test: NLRP3 inflammasome assay in BMDCs: ASC complex formation (western blot); format: cell-based
Method: FIG. 2A depicts western blot images showing the relative NLRP3 inflammasome activity of the compounds 22 (CLM-022) and 1 (CLM-001) by detecting the level of cellular ASC complex and the mature form of IL-1β (15 kDa) in a conditioned media of BMDCs treated with LPS (100 ng/ml) for 3 hours and then the compound at 50 nM, 100 nM, and 500 nM concentration for 30 min, followed by ATP or Nigericin. ASC monomer and β-Actin proteins were used as controls. FIG. 2B depict plots of results showing secreted IL-1β levels measured by ELISA using conditioned media of BMDC treated with the compound 22 or compound 1 at 63 nM, 125 nM, 250 nM, and 500 nM, under NLRP3 inflammasome activation induced either by LPS+ATP or LPS+Nigericin. FIG. 2C depict plots of results showing secreted TNF-α levels measured by ELISA using conditioned media of BMDC treated with the compound 22 or compound 1 at 63 nM, 125 nM, 250 nM, and 500 nM, under NLRP3 inflammasome activation induced either by LPS+ATP or LPS+Nigericin. […]
1. […] After 30 minutes Nigericin (10 μM) or ATP (5 mM) was added (Signal 2) and the level of NLRP3-dependent inflammasome activity was determined by western blotting the treated cells with ASC complex (>48 kDa). […]

TNF-α secretion = TNF-α secretion in BMDMs, LPS + Nigericin; format: cell-based, mouse; conditions: FIG. 5B
Method: as §1
Bone marrow-derived macrophages (BMDMs) were treated with LPS (100 ng/ml) for 3 hours to induce the expression of inflammatory genes, including TNF-α, NLRP3, and pro-IL-1β. Subsequently, the BMDMs were treated with CLM-022 or MCC950 in a dose range of 0-10 μM for 30 minutes. Then, to fully activate NLRP3-dependent inflammasome activity and cytokine secretion, Nigericin (10 μM) was added to the BMDMs for an additional 30 minutes.

NLRP3 = target: T1, NLRP3 (Homo sapiens, UniProt Q96P20); test: DARTS assay: protection of NLRP3 from Pronase degradation in THP-1 lysates; format: binding; conditions: 10 μM, Pronase (50-500 ng/μg of protein), FIG. 6A, 6B
T1 construct: DARTS with Pronase, NACHT and PYD antibodies
Text: The NLRP3 inflammasome is composed of a multi-protein complex and the exact molecular mode of NLRP3 activation remains unclear. Currently, there are no NLRP3 inflammasome inhibitors in the clinic, and it is important to identify the mechanism of action and molecular target of potential small molecules that interact with NLRP3. This example illustrates a study of the ability of CLM-022 to protect the NLRP3 molecule as determined using a drug affinity responsive target stability (DARTS) assay. DARTS assay is a robust method to identify small molecule target protein. In case of a drug-target interaction, the small molecule protects target protein from degradation by proteinase (Pronase) whereas free-proteins may be degraded very efficiently in the given condition.
The DARTS assay was performed using THP-1 lysates pretreated with LPS and Nigericin to induce activation of NLRP3 inflammasome. THP-1 cells (1×10^5/mL) were treated with LPS (100 ng/ml) for 3 hours, followed by 10 μM Nigericin for an additional 30 minutes. Pronase (50-500 ng/μg of protein) was added to the lysate with CLM-022 (10 μM) or MCC950 (10 μM) for the indicated time (10-15 min) at room temperature. The protein components of NLRP3 inflammasome were visualized using antibody recognizing NLRP3-Natch domain (FIG. 6A), NLRP-PYD domain (FIG. 6B), or NEK7 protein (FIG. 6C). […]

T1 sequence (Q96P20 whole entry): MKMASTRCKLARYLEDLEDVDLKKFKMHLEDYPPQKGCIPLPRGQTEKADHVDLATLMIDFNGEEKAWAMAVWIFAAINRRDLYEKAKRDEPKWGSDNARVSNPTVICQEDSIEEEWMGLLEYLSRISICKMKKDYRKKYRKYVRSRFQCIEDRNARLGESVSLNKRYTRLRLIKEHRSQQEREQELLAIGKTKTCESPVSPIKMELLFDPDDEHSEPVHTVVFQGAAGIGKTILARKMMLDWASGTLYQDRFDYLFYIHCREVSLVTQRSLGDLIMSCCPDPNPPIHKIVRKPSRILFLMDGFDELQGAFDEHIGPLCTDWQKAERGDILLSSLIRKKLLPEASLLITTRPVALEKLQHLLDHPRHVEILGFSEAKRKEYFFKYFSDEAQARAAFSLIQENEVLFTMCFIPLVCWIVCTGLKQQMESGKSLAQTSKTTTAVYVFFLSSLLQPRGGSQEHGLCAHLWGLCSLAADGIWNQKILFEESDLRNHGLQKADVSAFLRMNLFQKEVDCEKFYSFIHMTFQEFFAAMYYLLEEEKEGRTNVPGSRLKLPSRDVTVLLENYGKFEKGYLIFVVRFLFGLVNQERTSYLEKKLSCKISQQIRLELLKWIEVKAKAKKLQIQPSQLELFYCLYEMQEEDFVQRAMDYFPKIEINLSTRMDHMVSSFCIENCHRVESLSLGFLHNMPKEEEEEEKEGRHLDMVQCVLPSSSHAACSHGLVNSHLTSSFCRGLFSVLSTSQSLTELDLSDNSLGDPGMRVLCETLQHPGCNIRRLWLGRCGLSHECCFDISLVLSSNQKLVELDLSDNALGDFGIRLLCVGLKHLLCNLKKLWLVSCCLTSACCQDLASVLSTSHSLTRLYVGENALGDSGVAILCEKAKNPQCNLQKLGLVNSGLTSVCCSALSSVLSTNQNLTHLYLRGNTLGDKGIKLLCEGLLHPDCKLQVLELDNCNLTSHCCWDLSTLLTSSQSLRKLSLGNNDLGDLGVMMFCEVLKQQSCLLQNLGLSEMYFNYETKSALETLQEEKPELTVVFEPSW

With `CC1=C(O)C(=O)C=C2C1=CC=C1[C@@]2(C)CC[C@@]2(C)[C@@H]3C[C@](C)(N(C)C(=O)C(=O)N(C)C)CC[C@]3(C)CC[C@]12C` [Compound 22, N′-[(2R,4aS,6aR,6aS,14aS,14bR)-10-hydroxy-2,4a,6a,6a,9,14a-hexamethyl-11-oxo-1,3,4,5,6,13,14,14b-octahydropicen-2-yl]-N,N,N′-trimethyl-oxamide] the IC50 (NLRP3 inflammasome [1]; LPS (100 ng/ml) + Nigericin (10 μM), 0-10 μM, read-out: IC50 for inhibition of IL-1β secretion) was 159 nM, the “inhibition of IL-1β secretion” value (NLRP3 inflammasome [1]; LPS + Nigericin) was “robustly inhibited IL-1β secretion” and the ASC complex formation (NLRP3 inflammasome [2]; BMDCs, 50, 100, 500 nM, LPS then ATP or Nigericin, FIG. 2A) was “suppressed ASC complex formation more strongly than compound 1”. The NLRP3 inflammasome activity (NLRP3 inflammasome [2]; BMDCs, compared with compound 1) was “robust inhibitory function on NLRP3 inflammasome activity that was better than that observed for the parental molecule celastrol (compound 1)”, the “suppression of TNF-α secretion” value (TNF-α secretion) was “neither CLM-022 nor MCC950 suppressed TNF-α secretion” and the “protection of NLRP3 protein from Pronase-induced degradation” value (NLRP3) was “markedly improved protection of NLRP3 protein, but not NEK7, from Pronase-induced degradation”. For the same compound, the “protection of NLRP3 protein from Pronase-induced degradation” value (NLRP3; listed as CLM-022) was “markedly protected NLRP3 protein from degradation which was obviously more efficient than that of MCC950”.
